Data taken from ChEMBL document CHEMBL1156482, “Molecular mechanism of action of monocyclam versus bicyclam non-peptide antagonists in the CXCR4 chemokine receptor” (J Biol Chem, 2007).
The source made the active and inactive calls. The calls are words filed in the database; no cut-off is given here.

Assays:
[1] = system: C-X-C chemokine receptor type 4 (Homo sapiens), P61073 [D171N]; assay: (§1) Displacement of [125I]12G5 antibody from transmembrane domain 4 of human CXCR4 D171N mutant expressed in COS7 cells; assay type: cell-based; settings: COS-7
[2] = molecular target: C-X-C chemokine receptor type 4 (Homo sapiens, UniProt P61073, D171N); assay: as §1; assay type: cell-based, COS-7
[3] = system: C-X-C chemokine receptor type 4 (Homo sapiens), P61073 [V196A]; assay: (§2) Displacement of [125I]12G5 antibody from transmembrane domain 5 of human CXCR4 V196A mutant expressed in COS7 cells; assay type: cell-based; settings: COS-7
Chain of C-X-C chemokine receptor type 4 (Homo sapiens), P61073 [V196A] (P61073 whole entry V196A, the tested form may be a part): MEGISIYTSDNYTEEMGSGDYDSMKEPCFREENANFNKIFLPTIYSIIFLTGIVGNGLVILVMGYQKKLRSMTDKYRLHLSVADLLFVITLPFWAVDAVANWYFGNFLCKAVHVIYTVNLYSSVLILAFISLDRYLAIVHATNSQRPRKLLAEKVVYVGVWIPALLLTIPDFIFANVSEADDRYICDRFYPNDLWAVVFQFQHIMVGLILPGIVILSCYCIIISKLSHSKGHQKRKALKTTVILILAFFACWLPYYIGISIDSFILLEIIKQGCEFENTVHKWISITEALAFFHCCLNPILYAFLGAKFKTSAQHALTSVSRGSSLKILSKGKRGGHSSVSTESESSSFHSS

[4] = molecular target: C-X-C chemokine receptor type 4 (Homo sapiens, UniProt P61073, V196A); assay: as §2; assay type: cell-based, COS-7
Chain of C-X-C chemokine receptor type 4 (Homo sapiens, UniProt P61073, V196A) (P61073 whole entry V196A, the tested form may be a part): as above

[5] = system: C-X-C chemokine receptor type 4 (Homo sapiens), P61073 [G207F]; assay: (§3) Displacement of [125I]12G5 antibody from transmembrane domain 5 of human CXCR4 G207F mutant expressed in COS7 cells; assay type: cell-based; settings: COS-7
[6] = molecular target: C-X-C chemokine receptor type 4 (Homo sapiens, UniProt P61073, G207F); assay: as §3; assay type: cell-based, COS-7
[7] = system: C-X-C chemokine receptor type 4 (Homo sapiens), P61073 [Y255A]; assay: (§4) Displacement of [125I]12G5 antibody from transmembrane domain 6 of human CXCR4 Y255A mutant expressed in COS7 cells; assay type: cell-based; settings: COS-7
Chain of C-X-C chemokine receptor type 4 (Homo sapiens), P61073 [Y255A] (P61073 whole entry Y255A, the tested form may be a part): as the sequence (P61073 whole entry V196A, the tested form may be a part) above, with A196V, Y255A counted along it

[8] = molecular target: T1, C-X-C chemokine receptor type 4 (Homo sapiens, UniProt P61073, Y255A); assay: as §4; assay type: cell-based, COS-7
T1 sequence (P61073 whole entry Y255A, the tested form may be a part): as the sequence (P61073 whole entry V196A, the tested form may be a part) above, with A196V, Y255A counted along it

[9] = system: C-X-C chemokine receptor type 4 (Homo sapiens), P61073 [Y256A]; assay: (§5) Displacement of [125I]12G5 antibody from transmembrane domain 6 of human CXCR4 Y256A mutant expressed in COS7 cells; assay type: cell-based; settings: COS-7
[10] = molecular target: C-X-C chemokine receptor type 4 (Homo sapiens, UniProt P61073, Y256A); assay: as §5; assay type: cell-based, COS-7
[11] = system: C-X-C chemokine receptor type 4 (Homo sapiens), P61073 [D262N]; assay: (§6) Displacement of [125I]12G5 antibody from transmembrane domain 6 of human CXCR4 D262N mutant expressed in COS7 cells; assay type: cell-based; settings: COS-7
Chain of C-X-C chemokine receptor type 4 (Homo sapiens), P61073 [D262N] (P61073 whole entry D262N, the tested form may be a part): as the sequence (P61073 whole entry V196A, the tested form may be a part) above, with A196V, D262N counted along it

[12] = molecular target: T2, C-X-C chemokine receptor type 4 (Homo sapiens, UniProt P61073, D262N); assay: as §6; assay type: cell-based, COS-7
T2 sequence (P61073 whole entry D262N, the tested form may be a part): as the sequence (P61073 whole entry V196A, the tested form may be a part) above, with A196V, D262N counted along it

[13] = system: C-X-C chemokine receptor type 4 (Homo sapiens), P61073 [S263A]; assay: (§7) Displacement of [125I]12G5 antibody from transmembrane domain 6 of human CXCR4 S263A mutant expressed in COS7 cells; assay type: cell-based; settings: COS-7
[14] = molecular target: C-X-C chemokine receptor type 4 (Homo sapiens, UniProt P61073, S263A); assay: as §7; assay type: cell-based, COS-7
[15] = system: C-X-C chemokine receptor type 4 (Homo sapiens), P61073 [H281A]; assay: (§8) Displacement of [125I]12G5 antibody from transmembrane domain 7 of human CXCR4 H281A mutant expressed in COS7 cells; assay type: cell-based; settings: COS-7
Chain of C-X-C chemokine receptor type 4 (Homo sapiens), P61073 [H281A] (P61073 whole entry H281A, the tested form may be a part): as the sequence (P61073 whole entry V196A, the tested form may be a part) above, with A196V, H281A counted along it

[16] = molecular target: C-X-C chemokine receptor type 4 (Homo sapiens, UniProt P61073, H281A); assay: as §8; assay type: cell-based, COS-7
Chain of C-X-C chemokine receptor type 4 (Homo sapiens, UniProt P61073, H281A) (P61073 whole entry H281A, the tested form may be a part): as the sequence (P61073 whole entry V196A, the tested form may be a part) above, with A196V, H281A counted along it

[17] = system: C-X-C chemokine receptor type 4 (Homo sapiens), P61073 [I284A]; assay: (§9) Displacement of [125I]12G5 antibody from transmembrane domain 7 of human CXCR4 I284A mutant expressed in COS7 cells; assay type: cell-based; settings: COS-7
Chain of C-X-C chemokine receptor type 4 (Homo sapiens), P61073 [I284A] (P61073 whole entry I284A, the tested form may be a part): as the sequence (P61073 whole entry V196A, the tested form may be a part) above, with A196V, I284A counted along it

[18] = molecular target: T3, C-X-C chemokine receptor type 4 (Homo sapiens, UniProt P61073, I284A); assay: as §9; assay type: cell-based, COS-7
T3 sequence (P61073 whole entry I284A, the tested form may be a part): as the sequence (P61073 whole entry V196A, the tested form may be a part) above, with A196V, I284A counted along it

[19] = system: C-X-C chemokine receptor type 4 (Homo sapiens), P61073 [T287A]; assay: (§10) Displacement of [125I]12G5 antibody from transmembrane domain 7 of human CXCR4 T287A mutant expressed in COS7 cells; assay type: cell-based; settings: COS-7
Chain of C-X-C chemokine receptor type 4 (Homo sapiens), P61073 [T287A] (P61073 whole entry T287A, the tested form may be a part): as the sequence (P61073 whole entry V196A, the tested form may be a part) above, with A196V, T287A counted along it

[20] = molecular target: T4, C-X-C chemokine receptor type 4 (Homo sapiens, UniProt P61073, T287A); assay: as §10; assay type: cell-based, COS-7
T4 sequence (P61073 whole entry T287A): as the sequence (P61073 whole entry V196A, the tested form may be a part) above, with A196V, T287A counted along it

[21] = molecular target: C-X-C chemokine receptor type 4 (Homo sapiens, UniProt P61073); assay: Antagonist activity at human wild type CXCR4 expressed in COS7 cells coexpressing G protein Gqi4myr assessed as inhibition of CXCL12-induced phosphatidylinositol turnover; assay type: functional, cell-based, COS-7
Chain of C-X-C chemokine receptor type 4 (Homo sapiens, UniProt P61073) (P61073 whole entry): as the sequence (P61073 whole entry V196A, the tested form may be a part) above, with A196V counted along it

[22] = system: C-X-C chemokine receptor type 4 (Homo sapiens), P61073 [H113A]; assay: (§11) Antagonist activity at human CXCR4 H113A mutant expressed in COS7 cells coexpressing G protein Gqi4myr assessed as inhibition of CXCL12-induced phosphatidylinositol turnover; assay type: functional, cell-based; settings: COS-7
[23] = molecular target: C-X-C chemokine receptor type 4 (Homo sapiens, UniProt P61073, H113A); assay: as §11; assay type: functional, cell-based, COS-7
[24] = system: C-X-C chemokine receptor type 4 (Homo sapiens), P61073 [F172A]; assay: (§12) Antagonist activity at human CXCR4 F172A mutant expressed in COS7 cells coexpressing G protein Gqi4myr assessed as inhibition of CXCL12-induced phosphatidylinositol turnover; assay type: functional, cell-based; settings: COS-7
[25] = molecular target: C-X-C chemokine receptor type 4 (Homo sapiens, UniProt P61073, F172A); assay: as §12; assay type: functional, cell-based, COS-7
[26] = system: C-X-C chemokine receptor type 4 (Homo sapiens), P61073 [Y255A]; assay: (§13) Antagonist activity at human CXCR4 Y255A mutant expressed in COS7 cells coexpressing G protein Gqi4myr assessed as inhibition of CXCL12-induced phosphatidylinositol turnover; assay type: functional, cell-based; settings: COS-7
[27] = molecular target: T1, C-X-C chemokine receptor type 4; assay: as §13; assay type: functional, cell-based, COS-7
[28] = system: C-X-C chemokine receptor type 4 (Homo sapiens), P61073 [I259W]; assay: (§14) Antagonist activity at human CXCR4 I259W mutant expressed in COS7 cells coexpressing G protein Gqi4myr assessed as inhibition of CXCL12-induced phosphatidylinositol turnover; assay type: functional, cell-based; settings: COS-7
[29] = molecular target: C-X-C chemokine receptor type 4 (Homo sapiens, UniProt P61073, I259W); assay: as §14; assay type: functional, cell-based, COS-7
[30] = system: C-X-C chemokine receptor type 4 (Homo sapiens), P61073 [D262N]; assay: (§15) Antagonist activity at human CXCR4 D262N mutant expressed in COS7 cells coexpressing G protein Gqi4myr assessed as inhibition of CXCL12-induced phosphatidylinositol turnover; assay type: functional, cell-based; settings: COS-7
[31] = molecular target: T2, C-X-C chemokine receptor type 4; assay: as §15; assay type: functional, cell-based, COS-7
[32] = system: C-X-C chemokine receptor type 4 (Homo sapiens), P61073 [I284A]; assay: (§16) Antagonist activity at human CXCR4 I284A mutant expressed in COS7 cells coexpressing G protein Gqi4myr assessed as inhibition of CXCL12-induced phosphatidylinositol turnover; assay type: functional, cell-based; settings: COS-7
[33] = molecular target: T3, C-X-C chemokine receptor type 4; assay: as §16; assay type: functional, cell-based, COS-7
[34] = system: C-X-C chemokine receptor type 4 (Homo sapiens), P61073 [T287A]; assay: (§17) Antagonist activity at human CXCR4 T287A mutant expressed in COS7 cells coexpressing G protein Gqi4myr assessed as inhibition of CXCL12-induced phosphatidylinositol turnover; assay type: functional, cell-based; settings: COS-7
[35] = molecular target: T4, C-X-C chemokine receptor type 4; assay: as §17; assay type: functional, cell-based, COS-7
[36] = system: C-X-C chemokine receptor type 4 (Homo sapiens), P61073 [H281A]; assay: Antagonist activity at human CXCR4 H281A mutant expressed in U87.CD4 cells assessed as inhibition of CXCL12-induced calcium mobilization; assay type: functional, cell-based
[37] = system: Human immunodeficiency virus 1; assay: Antiviral activity against HIV1 NDK infected in U87.CD4 cells expressing human wild type CXCR4; assay type: functional, organism-based; settings: Human immunodeficiency virus 1, NDK
[38] = system: Human immunodeficiency virus 1; assay: Antiviral activity against HIV1 clinical isolate 10 infected in U87.CD4 cells expressing human wild type CXCR4; assay type: functional, organism-based; settings: Human immunodeficiency virus 1, U87.CD4
[39] = system: Human immunodeficiency virus 1; assay: Antiviral activity against HIV1 NL43 infected in U87.CD4 cells expressing human CXCR4 D171N mutant; assay type: functional, organism-based; settings: Human immunodeficiency virus 1, NL43, U87.CD4
[40] = system: Human immunodeficiency virus 1; assay: Antiviral activity against HIV1 NL43 infected in U87.CD4 cells expressing human CXCR4 D262N mutant; assay type: functional, organism-based; settings: Human immunodeficiency virus 1, NL43, U87.CD4
[41] = system: Human immunodeficiency virus 1; assay: Antiviral activity against HIV1 clinical isolate 10 infected in U87.CD4 cells expressing human CXCR4 D262N mutant; assay type: functional, organism-based; settings: Human immunodeficiency virus 1, U87.CD4
[42] = system: Human immunodeficiency virus 1; assay: Antiviral activity against HIV1 clinical isolate 10 infected in U87.CD4 cells expressing human CXCR4 H281A mutant; assay type: functional, organism-based; settings: Human immunodeficiency virus 1, U87.CD4

## c1ccc(CNCc2ccc(CN3CCCNCCNCCCNCC3)cc2)nc1
[1]
  logKi: -5.49
[2]
  Ki: 3.2 µM
[3]
  logKi: -5.74
[4]
  Ki: 1.8 µM
[5]
  logKi: -6.81
[6]
  Ki: 0.16 µM
[7]
  logKi: -6.35
[8]
  Ki: 0.45 µM
[9]
  logKi: -6.5
[10]
  Ki: 0.32 µM
[11]
  logKi: -3.22
[12]
  Ki: 600 µM
[13]
  logKi: -6.27
[14]
  Ki: 0.53 µM
[15]
  logKi: -3.29
[16]
  Ki: 519 µM
[17]
  logKi: -4.34
[18]
  Ki: 46 µM
[19]
  logKi: -5.71
[20]
  Ki: 2 µM
[21]
  Ki: 0.01 µM
[21]; COS-7
  logIC50: -8.01
[22]
  logIC50: -6.89
[23]
  Ki: 0.13 µM
[24]
  logIC50: -7.93
[25]
  Ki: 0.01 µM
[26]
  logIC50: -7.79
[27]
  Ki: 0.02 µM
[28]
  logIC50: -7.08
[29]
  Ki: 0.08 µM
[30]
  logIC50: -5.11
[31]
  Ki: 7.8 µM
[32]
  logIC50: -7.5
[33]
  Ki: 0.03 µM
[34]
  logIC50: -8.1
[35]
  Ki: 0.01 µM
[36]
  Activity: inactive
[37]
  IC50: 2.7 µM
[38]
  IC50: 4.7 µM
[39]
  IC50: 164 µM
[40]
  IC50: 0.038 µM
[41]
  IC50: 3.83 µM
[42]
  IC50: 1.95 µM
